Test results published in patent publication US20150344540A1, “NOVEL GLP-1 RECEPTOR AGONISTS WITH CHOLESTEROL EFFLUX ACTIVITY” (NOVO NORDISK A/S, priority 2012, published 2015).

Experiments:
[1] = Physical stability assay, dynamic light scattering; assay type: physicochemical
Description: Physical stability can be assessed by dynamic and static light scattering. In dynamic light scattering, microsecond fluctuations in scattered laser light incident on a aqueous sample is detected and transformed into diffusion coefficients (Df) of the individual species via the so-called autocorrelation function. For convenience, the diffusion coefficients are typically reported in hydrodynamic radii (Rh) assuming the sample to consist of spherical species. Furthermore, from the radii, an empirical estimate of the molecular weight is obtained. Dynamic light scattering is extremely sensitive and can resolve very small amounts of aggregated species that are undesirable in pharmaceutical formulations. The average, static intensity recorded by the detector also serves as an overall measure of the physical stability of the sample as development of larger species increase the scattered intensity drastically. In order to measure the physical stability of peptides, DLS was applied to aqueous solutions of peptides. Measurements were performed on a Wyatt (Santa Barbara, Calif.) DynaPro DLS plate reader at 25° C., and samples were kept at 37° C. between measurements. Samples were measured for up to two weeks. Measurements were performed in […] triplicate in Corning 3540 384-well microtiter plates (Corning, N.Y.) sealed with transparent plastic foil (Thermo Fischer Scientific, Waltham, Mass.) with twenty 10-second acquisitions per measurement. Autocorrelation curves were fitted with a regularization fit in Dynamics 7.1.7.16 and the resulting diffusion coefficients were transformed into hydrodynamic radii and molecular mass assuming a spherical shape (Table 2). Normalized intensities are reported as is.
Judging from the autocorrelation functions and the normalized static intensity, only minute amounts of aggregate were present at any time independent of sample concentration.

[2] = Pharmacokinetics in normal mice after i.v. and s.c. administration; assay type: in vivo, female C57B1/6J mice
Description: The mice, 60 female C57B1/6J were purchased from Taconic, arriving at Novo Nordisk A/S Animal Unit at 6-7 weeks of age. The mice were housed according to standard rules in the animal unit and given free access to standard chow and tap water. The animals were kept at a room temperature and housed in groups of 8 mice, with free access to food and water, according to Animal Unit's SOP (Housing of experimental animals at Novo Nordisk A/S).
Peptide is administered as a single dose either s.c. or i.v.
After the 2nd sample the mice were sacrificed. The plasma concentrations of the compounds with intact N-terminus were determined using a Luminescence Oxygen Chanelling Immuno-assay (LOCI). The donor beads were coated with streptavidin, while acceptor beads were conjugated with a monoclonal antibody recognizing a mid-/C-terminal epitope of the peptide. The other monoclonal antibody, specific for the N-terminus, was biotinylated. The three reactants were combined with the analyte and formed a two-sited immuno-complex. Illumination of the complex released singlet oxygen atoms from the donor beads, which were channeled into the acceptor beads and triggered chemiluminescence which was measured in an Envision plate reader. The amount of light was proportional to the concentration of the compound.

[3] = female, C57B1/6J, mouse, plasma, sc

`CC[C@H](C)[C@H](NC(=O)[C@H](Cc1ccccc1)NC(=O)[C@H](CCC(=O)O)NC(=O)[C@H](CCCCN)NC(=O)[C@@H](NC(=O)[C@H](C)NC(=O)[C@H](CCC(=O)O)NC(=O)CNC(=O)[C@H](CCC(=O)O)NC(=O)[C@H](CC(C)C)NC(=O)[C@H](Cc1ccc(O)cc1)NC(=O)[C@H](CO)NC(=O)[C@H](CO)NC(=O)[C@@H](NC(=O)[C@H](CC(=O)O)NC(=O)[C@H](CO)NC(=O)[C@@H](NC(=O)[C@H](Cc1ccccc1)NC(=O)[C@@H](NC(=O)CNC(=O)[C@H](CCC(=O)O)NC(=O)C(C)(C)NC(=O)[C@@H](N)Cc1c[nH]cn1)[C@@H](C)O)[C@@H](C)O)C(C)C)C(C)C)C(=O)N[C@@H](C)C(=O)N[C@@H](Cc1c[nH]c2ccccc12)C(=O)N[C@@H](CC(C)C)C(=O)N[C@H](C(=O)N[C@@H](CCC(=O)O)C(=O)N[C@@H](CCCCN)C(=O)NC(C)(C)C(=O)N[C@@H](CCCCN)C(=O)N[C@@H](CCC(=O)O)C(=O)N[C@@H](Cc1ccccc1)C(=O)N[C@@H](CC(C)C)C(N)=O)C(C)C` [Compound 1, [Aib8,Glu23,Val25,Glu34,Lys35,Aib36,Lys37]-GLP-1-(7-37)-peptidyl-Glu-Phe-Leu amide] gave an Inorm avg. ([1]; 0.9 mg/mL, 37° C., t 0 days) of 1.15E+06 kcts, a Rh avg. ([1]; 0.9 mg/mL, 37° C., t 0 days) of 2.32 nm and an Inorm avg. ([1]; 0.9 mg/mL, 37° C., t 1 days) of 1.48E+06 kcts. It also gave a Rh avg. ([1]; 0.9 mg/mL, 37° C., t 1 days) of 2.31 nm, an Inorm avg. ([1]; 0.9 mg/mL, 37° C., t 4 days) of 3.76E+06 kcts and a Rh avg. ([1]; 0.9 mg/mL, 37° C., t 4 days) of 1.94 nm. It also gave an Inorm avg. ([1]; 0.9 mg/mL, 37° C., t 8 days) of 1.27E+06 kcts, a Rh avg. ([1]; 0.9 mg/mL, 37° C., t 8 days) of 2.26 nm and an Inorm avg. ([1]; 0.9 mg/mL, 37° C., t 13 days) of 2.25E+06 kcts. The Rh avg. ([1]; 0.9 mg/mL, 37° C., t 13 days) was 2.44 nm, the “oligomer size (molecular weight consistent with number of monomers)” value ([1]; 20 mM phosphate pH 7.5 buffer, 0.9 mg/mL or 45.5 mg/mL) was “approximately 4 monomers” and the “oligomer stability by DLS” value ([1]; 20 mM phosphate pH 7.5 buffer, 0.9 mg/mL or 45.5 mg/mL, 37° C., up to two weeks) was “remained stable throughout the sample period”. It also gave an Inorm avg. ([1]; 45.5 mg/mL, 37° C., t 0 days) of 8.33E+06 kcts, a Rh avg. ([1]; 45.5 mg/mL, 37° C., t 0 days) of 2.13 nm and an Inorm avg. ([1]; 45.5 mg/mL, 37° C., t 1 days) of 9.29E+06 kcts. For the same compound, the Rh avg. ([1]; 45.5 mg/mL, 37° C., t 1 days) was 2.27 nm, the Inorm avg. ([1]; 45.5 mg/mL, 37° C., t 4 days) was 1.04E+07 kcts and the Rh avg. ([1]; 45.5 mg/mL, 37° C., t 4 days) was 2.27 nm. It also gave an Inorm avg. ([1]; 45.5 mg/mL, 37° C., t 6 days) of 6.55E+06 kcts, a Rh avg. ([1]; 45.5 mg/mL, 37° C., t 6 days) of 2.35 nm and an Inorm avg. ([1]; 45.5 mg/mL, 37° C., t 14 days) of 7.18E+06 kcts. The Rh avg. ([1]; 45.5 mg/mL, 37° C., t 14 days) was 2.28 nm, the half-life ([2]; female, C57B1/6J, mouse, plasma, iv) was 6.7 h and the Vd ([2]; female, C57B1/6J, mouse, plasma, iv, read-out: Volume of distribution) was 0.0456 L/kg. The Tmax [2, 3] was 4 h, the half-life [2, 3] was 11.5 h and the clearance ([2]; mice, i.v., Compound 1 dose 99 nmol/kg, Compound 5 dose 135 nmol/kg) was 4.69 mL/h/kg. It also gave a Volume of distribution ([2]; mice, s.c., Compound 1 dose 323 nmol/kg, Compound 5 dose 62 nmol/kg) of 0.1592 L/kg.
